Laboratory results published in patent US20050170019A1, “Methods, compositions and devices for inducing stasis in cells” (Fred Hutchinson Cancer Research Center, priority 2003, published 2005).
Like-named read-outs stand apart in the source and are kept apart here.

Columns and labels:
human keratinocytes = test: Preservation of human skin in carbon monoxide: keratinocyte growth and colony formation; assay type: cell-based
Protocol: Three human foreskins were obtained for this purpose. The foreskin tissue was preserved in keratinocyte growth medium (KGM) containing insulin, EGF (0.1 ng/ml), hydrocortisone ([…]) and bovine pituitary extract (approx. 50 micrograms/ml of protein). Foreskins were rinsed in PBS, and excess fatty tissue was removed. Each foreskin sample was divided into 2 equal pieces. Each piece was placed into a separate container containing a solution of PBS with 24 mg/ml of Dispase II (from Bacillus Polymyxa EC 3.4.24.4:Roche Diagnostics Corp., Indianapolis, Ind.). One container (containing a foreskin piece in PBS with Dispase II) was kept in a humid chamber in a fume hood. The other container (with the other half of the foreskin in PBS with Dispase II) was placed in the same fume hood in an environmental chamber perfused with humidified 100% CO. Both samples were maintained at room temperature for 24 hrs. Methods used to establish defined atmospheric conditions were identical to those used in Example 1.
Following the 24 hr exposure to normoxia or 100% CO, keratinocytes were isolated from the foreskins according to the method described by Boyce et al. (1983; 1985; each of which is incorporated herein by reference in its entirety). Briefly, the epidermis from each foreskin sample was removed to a fresh dish containing PBS. The epidermis was minced and homogenized prior to incubation in 3 ml of 0.05% Trypsin, 1 mM EDTA for 5 minutes, at room temperature, to separate basal cells from the epidermis. After incubation, 6 ml of 400 μg/ml (micrograms per ml) Soybean Trypsin Inhibitor, 1 mg/ml BSA was added and the samples were centrifuged at 900 RPM. The supernatant from each sample was discarded and the sample pellets were resuspended in 10 ml of KGM. Each sample was split into two 10 cm plates each of which contained 5 ml KGM and 100 μl of HEPES pH 7.3 (N-2-hydroxyethylpiperazine-N′-2-ethane sulfonic acid). The plates were incubated in a 37° C. incubator perfused with 95% room air, 5% carbon dioxide for five days.
Cells were inspected visually using an inverted phase contrast microscope. […] Quantitation of the number of viable keratinocytes as judged by colony formation was quantified for two of the three foreskins.

C. elegans embryos [1] = test: Viability of nematodes in carbon monoxide based atmospheres; assay type: in vivo; conditions: for viability (survival) to adulthood: 0.25 kPa O2/CO
From the text: To achieve specific atmospheric conditions the following apparatus was used: a glass syringe barrel having a tip with a locking device such as a LUER-LOK with the large opening of the barrel sealed with a custom-machined steel and rubber fitting to make an airtight seal was locked to via locking device to the inlet port of an environmental chamber having an inlet and an outlet port each fitted with a locking devices such as a LUER-LOK fitting. A defined gas was humidified and provided to the environmental chamber by first venting the gas from a compressed tank (Byrne Specialty Gas, Seattle, Wash.) through a gas washing bottle (500 ml Kimex) filled with double distilled water. The gas washing bottle was connected to the environmental chamber past a gas-flow meter. A gas flow meter was used to provide a regulated 70 cc/min flow through the environmental chamber throughout the 24 hr incubation.
(§1) To test whether induced, reversible stasis could be achieved in C. elegans nematodes, 2-cell C. elegans embryos, L3 larvae or adult nematodes were collected and exposed to either an environment of effectively 100% CO, an environment of 100% N2, an environment comprising 500 ppm oxygen balanced with carbon monoxide, or to environments comprising 100, 500 or 1000 ppm oxygen balanced with nitrogen at room temperature. Nematodes were visualized using differential interference contrast microscopy (also known as Nomarski optics). Images were collected and analyzed using NIH image and Adobe Photoshop 5.5. Embryos are approximately 50 μm in length.
Environmental chambers and apparatuses. Oxygen deprivation experiments were carried out using a custom atmospheric chamber designed by W. Van Voorhies (Van Voorhies et al., 2000). The chamber is a 30 mL glass syringe (Fisher #14-825-10B) fitted with a custom steel stopper that is lined with two viton o-rings to ensure a tight seal. The stopper is bored through and has a steel lure lock on the exterior face so that a hose carrying compressed gas can be attached. A defined gas mixture is delivered to the chamber at a constant pressure and flow rate from compressed tanks by passing first through a rotometer (Aalborg, flow-tube number 032-41ST) or mass flow controller (Sierra Instruments #810) to monitor flow rate and then through a 500 ml gas washing bottle (Fisher #K28220-5001) containing 250 ml water to hydrate the gas. ¼” OD nylon (Cole-Parmer #P-06489-06) or FEP (Cole-Parmer #A-06450-05) tubing was used and connections between tubing and the regulators and between the tubing and the rotometers were made with brass John-Guest-type fittings (Byrne Gas). All other connections were made with either microflow quick-connect fittings (Cole-Parmer #A-06363-57, #A-06363-52) or standard lure fittings (Cole-Parmer #A-06359-37, #A-06359-17).
Viability of nematodes in hypoxia. […] Log-phase, adult C. elegans were picked into a drop of sterile water containing 100 μg/ml ampicillin, 15 μg/ml tetracycline and 200 μg/ml streptomycin on a glass plate. Adults were chopped with a razor blade and 2-cell embryos were picked using a mouth pipet. 30-60 2-cell embryos were transferred to a small glass boat (custom made to fit atmospheric chambers, Avalon Glass Works, Seattle Wash.) filled with 3 ml of 1% agarose in M9. Boats were then placed into a humid chamber for 2 hours to allow the embryos to age and then placed into the environmental chamber. The environmental chambers were continuously perfused at room temperature with either pure N2 (grade 4.5), 100 ppm O2/N2, 500 ppm O2/N2, 1000 ppm O2/N2, or 5000 ppm O2/N2 at 70 cc/min for 24 hrs. Following exposure, agarose chunks containing the embryos were cut out of the boat and placed with embryos facing up onto a medium-sized NGM plate seeded with E. coli (OP50). Embryos were scored for hatching 24 hours after exposure and hatched L1's were transferred to the surface of the NGM plate and followed to adulthood. Animals that could not be accounted for were dropped from the total. […]

C. elegans embryos [2] = test: Cell biological analysis: arrest of embryogenesis (suspended animation) in carbon monoxide-based atmospheres; assay type: in vivo
From the text: as §1
Cell biological analysis. To determine the extent of developmental progression in nitrogen-based atmospheres (Table 2), 2-cell embryos were exposed to various degrees of hypoxia as described above and were either immediately photographed, or photographed following a 12 hr recovery period in a humid chamber. To determine whether embryos arrested in carbon monoxide-based atmospheres, 2-cell embryos were aged in room air for two hours and were either photographed immediately or put into 100% carbon monoxide or 0.05 kPa O2/CO for 24 hours and photographed immediately following the exposure. In all cases, DIC microscopy was done by placing embryos under a cover slip on a thin 1% agarose pad and viewing on a Zeiss axioscope. Photographs were taken using RS Image and Adobe Photoshop software.

humans = conditions: cited from earlier work

With `[C-]#[O+]` [carbon monoxide] the Total colonies (human keratinocytes; Foreskin 1, 100% CO 24 hrs) was 542 colonies (many of which were very, the Total colonies (human keratinocytes; Foreskin 2, 100% CO 24 hrs) was 780 colonies (many of which were very and the “survival of human keratinocytes (FIG. 1)” value (human keratinocytes; exposure to 100% CO) was “survive”. For the same compound, the “survival of skin cells in CO relative to room air” value (human keratinocytes; human skin, 100% CO, after 24 hrs) was 100 fold, the “growth of keratinocyte populations (visual inspection)” value (human keratinocytes; three foreskins, 24 hr 100% CO at room temperature, then five days culture) was “significant growth” and the “viability (survival) to adulthood” value (C. elegans embryos [1]; N2 (wild-type) embryos, 24 hrs) was 78.7%. The “viability (survival) to adulthood” value (C. elegans embryos [1]; N2 (wild-type) embryos, 24 hrs, listed as CO) was 78.7% ± 21.9, the viability to adulthood (C. elegans embryos [1]; embryos, 0.05 kPa O2 balanced with carbon monoxide, 24 hours) was 96.2% and the survival to adulthood (C. elegans embryos [1]; embryos, 101 kPa CO (100% CO), 24 hrs) was 81.5%. For the same compound, the “viability (survival) to adulthood” value (C. elegans embryos [1]; hif-1(ia04) embryos, 24 hrs) was 84.0%, the “viability (survival) to adulthood” value (C. elegans embryos [1]; hif-1(ia04) embryos, 24 hrs, listed as CO) was 83.9% ± 13.8 and the lethality (C. elegans embryos [1]; nematodes, 100% carbon monoxide, room temperature, 24 hr) was “not lethal”. The “suspended animation and survival” value (C. elegans embryos [1]; nematodes, 500 ppm oxygen balanced with carbon monoxide) was “entered into suspended animation and survived”, the “protection against hypoxia (FIG. 3)” value (C. elegans embryos [1]; wild-type embryos, 24 hours, 0.05 kPa O2/CO versus 0.05 kPa O2/N2) was “protects against hypoxia” and the embryogenesis during exposure (C. elegans embryos [2]; embryos, 0.05 kPa O2 balanced with carbon monoxide) was “arrested embryogenesis”. For the same compound, the “progression through embryogenesis during exposure” value (C. elegans embryos [2]; embryos, 101 kPa CO) was “did not progress through embryogenesis”, the “induction of suspended animation” value (C. elegans embryos [2]; nematodes, 100% carbon monoxide) was “induced reversible suspended animation” and the suspended animation (C. elegans embryos [2]; wild-type and hif-1(ia04) embryos, 0.25 kPa O2 balanced with carbon monoxide) was “entered into suspended animation”. For the same compound, the symptoms (humans; 50 parts per million (ppm)) was “no symptoms”, the symptoms (humans; 200 ppm, within two-three hours) was “slight headache” and the symptoms (humans; 400 ppm, within one to two hours) was “frontal headache”. The symptoms (humans; 800 ppm) was “dizziness, nausea, and/or convulsions within 45 minutes, and render the subject insensible within two hours” and the lethality (humans; around 1000 ppm, exposure for more than around 1-2 minutes, an organism) was “can expire”.
